Assay results: publication PMC12175177 (Frontiers in Pharmacology, 2025)
Converted amounts (≈) assume the structure as drawn. Structures can show the parent of a compound that is named as a salt.

What was measured:
[1] = Cytotoxicity (MTT / CellTiter-Glo cell viability) in Calu-3 cells; format: cell-based, human; conditions: human, Calu-3 cells, at MNCC, 48 h exposure, normalized to untreated control; mean 2x
Source text: (§1) An 80% viability threshold was established for selecting the compounds for further analysis.

[2] = system: Vero-E6 and Calu-3 cells; assay: Maximum non-cytotoxic concentration (MNCC) determination; format: cell-based; conditions: 48 h
Source text: as §1

[3] = Cytotoxicity (MTT / CellTiter-Glo cell viability) in Vero-E6 cells; format: cell-based, African green monkey; conditions: African green monkey, Vero-E6 cells, at MNCC, 48 h exposure, normalized to untreated control; mean 2x
Source text: as §1

[4] = system: Calu-3 cells; assay: Cytotoxicity (MTT / CellTiter-Glo cell viability) in Calu-3 cells; format: cell-based, human; conditions: at MNCC, 48 h exposure, normalized to untreated control, mean 2x
Source text: as §1

[5] = system: Vero-E6 cells; assay: Cytotoxicity (MTT / CellTiter-Glo cell viability) in Vero-E6 cells; format: cell-based, African green monkey; conditions: at MNCC, 48 h exposure, normalized to untreated control, mean 2x
Source text: as §1

[6] = CC50 determination in Vero E6 cells; conditions: African green monkey
Source text: (§2) DMSO was used as a negative control. To calculate the IC50 and CC50, a 4-parameter nonlinear regression sigmoidal concentration-response function was undertaken using the Prism 10 software package (GraphPad, Boston, MA, USA).

[7] = doses commonly administered in human treatments; ref Byakika-Kibwika et al., 2012 (ASi); Nicol et al., 2020 (CQ, HCQ); Gonzalez Canga et al., 2008 (IVM); Bhatia et al., 1986 (PQ); cited from earlier work
[8] = system: Vero E6 cells; assay: CC50 determination in Vero E6 cells; conditions: Vero E6
Source text: as §2

[9] = system: SARS-CoV-2; design: method as in Gendrot et al., 2020c; conditions: other studies; ref Gendrot et al., 2020c; cited from earlier work
[10] = CC50 (Figure 4 curve), Vero-E6, sigmoidal 4PL fit

| Compound | viability at 48 h [1] [%] | MNCC Concentration [2] [µM] | viability at 48 h [3] [%] | % viability Calu-3 [4] [%] | % viability Vero E6 [5] [%] | further results |
| --- | --- | --- | --- | --- | --- | --- |
| OC(c1cc(C(F)(F)F)nc2c(C(F)(F)F)cccc12)C1CCCCN1 (stereo not shown) [Mefloquine (MQ), Mefloquine] | 82 | 30 | 105 |  |  |  |
| COc1c(C)c2c(c(O)c1C/C=C(\C)CCC(=O)O)C(=O)OC2 [Mycophenolic acid (MYC), Mycophenolic acid] | 109 | 5 | 107 |  |  |  |
| Ivermectin [Ivermectin Farmacia (IVM-f)] |  | 75 |  | 67 | 101 | % viability Calu-3 ([4]; listed as IVM-f): < 80% |
| O=C(Nc1cccc(C2=NCCN2)c1)Nc1cccc(C2=NCCN2)c1 [Imidocarb (IMI), Imidocarb] | 106 |  | 92 |  |  |  |
| CCc1nc(N)nc(N)c1-c1ccc(Cl)cc1 [Pyrimethamina (PYR), Pyrimethamina] | 92 | 125 | 94 |  |  |  |
| CN1CCN(CCCN2c3ccccc3Sc3ccc(Cl)cc32)CC1 [Prochlorperazine (PCPZ), Prochlorperazine] | < 80 | 30 | 80 | 77 |  |  |
| CN(C)C(=O)COC(=O)Cc1ccc(OC(=O)c2ccc(NC(=N)N)cc2)cc1 [Camostat mesylate (CAM), Camostat mesylate] | 112 | 50 | 118 |  |  |  |
| CCN(CC)Cc1cc(Nc2ccnc3cc(Cl)ccc23)ccc1O [Amodiaquine (AQ), Amodiaquine] | 82 | 20 | 84 |  |  |  |
| CN(C)c1ccc2nc3ccc(=[N+](C)C)cc-3sc2c1 [Methylene Blue Injection (MBi), Methylene Blue] | 89 | 5 | 84 |  |  |  |
| CCN(CCO)CCCC(C)Nc1ccnc2cc(Cl)ccc12 (stereo not shown) [Hydroxychloroquine Minsa (HCQ-m), Hydroxychloroquine] |  |  |  | 84 | 72 | % viability Vero E6 ([5]; listed as HCQ-m): < 80% |
| NC(=O)c1ncn([C@@H]2O[C@H](CO)[C@@H](O)[C@H]2O)n1 [Ribavirin (RIB), Ribavirin] | 91 | 250 | 104 |  |  |  |
| Ivermectin [Ivermectin Liquida (IVM-li)] |  | 30 |  | 87 | 85 |  |
| CC[C@H]1OC(=O)[C@H](C)[C@@H](O[C@H]2C[C@@](C)(OC)[C@@H](O)[C@H](C)O2)[C@H](C)[C@@H](O[C@@H]2O[C@H](C)C[C@H](N(C)C)[C@H]2O)[C@](C)(O)C[C@@H](C)CN(C)[C@H](C)[C@@H](O)[C@]1(C)O [Azithromycin dehydrate (AZH), Azithromycin dehydrate] | 87 | 30 | 92 |  |  |  |
| C[C@H]1[C@H](OC(=O)CCC(=O)O)O[C@@H]2O[C@@]3(C)CC[C@H]4[C@H](C)CC[C@@H]1[C@@]24OO3 [Artesunic acid (AS), Artesunic acid] | < 80 | 125 | < 80 | 74 | 74 |  |
| Ferroquine [Ferroquine (FQ)] |  | 5 |  | 63 | 75 | % viability Vero E6 ([5]; listed as FQ): < 80% |
| CCCCN(CCCC)CC(O)c1cc(Cl)cc2c1-c1ccc(Cl)cc1/C2=C/c1ccc(Cl)cc1 (stereo not shown) [Lumefantrine (LUM), Lumefantrine] | 86 | 250 | 86 |  |  |  |
| C=C[C@H]1C[N@@]2CC[C@H]1C[C@H]2[C@H](O)c1ccnc2ccc(OC)cc12 [Quinine Sulfate (QN), Quinine Sulfate] | 90 | 5 | < 80 |  | 74 |  |
| CCN(CCO)CCCC(C)Nc1ccnc2cc(Cl)ccc12 (stereo not shown) [Hydroxychloroquine sulfate (HCQ), Hydroxychloroquine sulfate] | < 80 |  |  | 64 | 47 | CC50 at 72 h ([6]; CC50% in µg/mL, Vero E6): 23.2 mg/L; CC50 at 72 h ([6]; CC50%, Vero E6): 72.1 µM; CC50 at 72 h [6, 10]: 72.1 µM; % viability Vero E6 ([5]; listed as HCQ sulfate): < 80%; Cmax (maximum plasma concentration) [7]: 0.13 µg/mL |
| CC[C@H](C)[C@H]1O[C@]2(CC[C@@H]1C)C[C@@H]1C[C@@H](C/C=C(\C)[C@@H](O[C@H]3C[C@H](OC)[C@@H](O[C@H]4C[C@H](OC)[C@@H](O)[C@H](C)O4)[C@H](C)O3)[C@@H](C)/C=C/C=C3\CO[C@@H]4[C@H](O)C(C)=C[C@@H](C(=O)O1)[C@]34O)O2 [Ivermectin (IVM), Ivermectin] |  | 8 |  | 87 | 93 | CC50 [8]: 74 µM; CC50% [8]: 64.8 mg/L (≈ 74 µM); Cmax (maximum plasma concentration) [7]: 0.05 µg/mL |
| CCO[C@H]1O[C@@H]2O[C@@]3(C)CC[C@H]4[C@H](C)CC[C@@H]([C@H]1C)[C@@]24OO3 [Arteether (AE), Arteether] | 97 | 125 | 104 |  |  |  |
| COc1cc(NC(C)CCCN)c2ncccc2c1 (stereo not shown) [Primaquine Phosphate (PQ), Primaquine Phosphate] | 87 | 15 | 106 |  |  | CC50 at 72 h ([6]; CC50% in µg/mL, Vero E6): 5.5 mg/L; CC50 at 72 h ([6]; CC50%, Vero E6): 21.2 µM; CC50 at 72 h [6, 10]: 21.2 µM; Cmax (maximum plasma concentration) [7]: 0.05 µg/mL |
| COc1ccc2nc3cc(Cl)ccc3c(Nc3cc(CN4CCCC4)c(O)c(CN4CCCC4)c3)c2n1 [Pyranoridine (PNO), Pyranoridine] |  | 5 |  | 78 | 91 | % viability Calu-3 ([4]; listed as PNO): < 80% |
| CCN(CC)CCCC(C)Nc1ccnc2cc(Cl)ccc12 (stereo not shown) [Chloroquine diphosphate (CQ), Chloroquine diphosphate] | 105 | 5 | 103 |  |  | CC50 at 72 h ([6]; CC50% in µg/mL, Vero E6): 17 mg/L; CC50 at 72 h ([6]; CC50%, Vero E6): 53.2 µM; CC50 at 72 h [6, 10]: 57.1 µM; EC50 [9]: 2.1 µM; EC90 [9]: 3.8 µM; Cmax (maximum plasma concentration) [7]: 2.70 µg/mL |
| C[C@H]1[C@@H](OCc2ccc(C(=O)O)cc2)O[C@@H]2O[C@@]3(C)CC[C@H]4[C@H](C)CC[C@@H]1[C@@]24OO3 [Artelinic Acid (AA), Artelinic Acid] |  | 30 |  | 92 | 100 |  |
| C[C@H]1[C@H](OC(=O)CCC(=O)O)O[C@@H]2O[C@@]3(C)CC[C@H]4[C@H](C)CC[C@@H]1[C@@]24OO3 [Artesunate injection (ASi), Artesunate] |  | 50 |  | 82 | 81 | CC50 at 72 h ([6]; CC50% in µg/mL, Vero E6): 27 mg/L; CC50 at 72 h ([6]; CC50%, Vero E6): 70.3 µM; MNCC Concentration ([2]; listed as ASi): 50 µM; Cmax (maximum plasma concentration) [7]: 3.30 µg/mL |
| C[C@H]1[C@H](N2CCS(=O)(=O)CC2)O[C@@H]2O[C@@]3(C)CC[C@H]4[C@H](C)CC[C@@H]1[C@@]24OO3 [Artemisone (ASO), Artemisone] | 93 | 125 | 92 |  |  |  |
